Data from PMC9728921, “Characterization of a KDM5 small molecule inhibitor with antiviral activity against hepatitis B virus” (PLOS ONE, 2022).

Legend:
Tolerability in rats = assay type: in vivo; conditions: GS-5801 doses tested (0.3-30 mg/kg p.o. once daily for five days)
Description: Animals were sacrificed 24 hours post final dose and approximately 100 mg of liver (left lateral lobe), lung, and kidney tissue was collected. Additionally, one mL of venous blood for PBMC isolation was collected into K2EDTA vacutainer tubes (Thermo Fisher; BD367835). […] Diluted whole blood was layered onto an equal volume of HISTOPAQUE-1077 (Sigma; 10771) gradient medium and centrifuged at 400 x g for 30 minutes with the centrifuge brake switch off. PBMCs were collected at the plasma-HISTOPAQUE-1077 interface and washed three times with DPBS by centrifugation at 500 x g for 10 minutes. Tissue samples and PBMCs were snap frozen using liquid nitrogen and stored at -80°C for subsequent H3K4me3:H3 analysis by ELISA.

KDM4A = KDM4A (Homo sapiens, UniProt O75164); test: KDM4A enzymatic assay (AlphaLISA); assay type: biochemical
Description: (§1) The following assay protocol was used for all histone demethylases tested except KDM1A, KDM5A, B, and D, which are described below. Compounds were serially diluted into a 384-well Alpha plate as a DMSO solution and mixed with 5 μL reaction buffer (buffer A) containing 50 mM HEPES (pH 7.0), 0.1% BSA, and 0.003% Tween-20. The enzyme of interest was pre-incubated with 15 μM of Fe^2+ for 10 min (except 30 min for KDM2B) in reaction buffer A. 5 μL of the enzyme mixture was added to each of the compound-containing wells and incubated for 10 min. The reaction was started by addition of a 5 μL mixture containing 300 nM peptide substrate, 75 μM L-ascorbic acid, and 30 μM α-ketoglutarate in buffer A. This final 15 μL of reaction mixture was incubated for 20 min for KDM5B and 1 hour for the other KDM enzymes. The reaction was quenched with 10 μL of diluted AlphaLISA Acceptor beads (1:400) in Epigenetics Buffer and incubated for 60 min. The Donor beads were diluted 1:400 into Epigenetics Buffer in the dark and 10 μL of this was added to each well and incubated for another 60 min in the dark. The assay plates were read on an Enspire plate reader (PerkinElmer) using a standard AlphaLISA program.
(§2) Data was analyzed using GraphPad Prism 6.0 (La Jolla, CA). […] IC50 values were calculated as an average of at least two independent experiments.

KDM2B = biological target: T1, KDM2B (Homo sapiens, UniProt Q8NHM5); test: KDM2B enzymatic assay (AlphaLISA); assay type: biochemical
T1 sequence (Q8NHM5 1-1336): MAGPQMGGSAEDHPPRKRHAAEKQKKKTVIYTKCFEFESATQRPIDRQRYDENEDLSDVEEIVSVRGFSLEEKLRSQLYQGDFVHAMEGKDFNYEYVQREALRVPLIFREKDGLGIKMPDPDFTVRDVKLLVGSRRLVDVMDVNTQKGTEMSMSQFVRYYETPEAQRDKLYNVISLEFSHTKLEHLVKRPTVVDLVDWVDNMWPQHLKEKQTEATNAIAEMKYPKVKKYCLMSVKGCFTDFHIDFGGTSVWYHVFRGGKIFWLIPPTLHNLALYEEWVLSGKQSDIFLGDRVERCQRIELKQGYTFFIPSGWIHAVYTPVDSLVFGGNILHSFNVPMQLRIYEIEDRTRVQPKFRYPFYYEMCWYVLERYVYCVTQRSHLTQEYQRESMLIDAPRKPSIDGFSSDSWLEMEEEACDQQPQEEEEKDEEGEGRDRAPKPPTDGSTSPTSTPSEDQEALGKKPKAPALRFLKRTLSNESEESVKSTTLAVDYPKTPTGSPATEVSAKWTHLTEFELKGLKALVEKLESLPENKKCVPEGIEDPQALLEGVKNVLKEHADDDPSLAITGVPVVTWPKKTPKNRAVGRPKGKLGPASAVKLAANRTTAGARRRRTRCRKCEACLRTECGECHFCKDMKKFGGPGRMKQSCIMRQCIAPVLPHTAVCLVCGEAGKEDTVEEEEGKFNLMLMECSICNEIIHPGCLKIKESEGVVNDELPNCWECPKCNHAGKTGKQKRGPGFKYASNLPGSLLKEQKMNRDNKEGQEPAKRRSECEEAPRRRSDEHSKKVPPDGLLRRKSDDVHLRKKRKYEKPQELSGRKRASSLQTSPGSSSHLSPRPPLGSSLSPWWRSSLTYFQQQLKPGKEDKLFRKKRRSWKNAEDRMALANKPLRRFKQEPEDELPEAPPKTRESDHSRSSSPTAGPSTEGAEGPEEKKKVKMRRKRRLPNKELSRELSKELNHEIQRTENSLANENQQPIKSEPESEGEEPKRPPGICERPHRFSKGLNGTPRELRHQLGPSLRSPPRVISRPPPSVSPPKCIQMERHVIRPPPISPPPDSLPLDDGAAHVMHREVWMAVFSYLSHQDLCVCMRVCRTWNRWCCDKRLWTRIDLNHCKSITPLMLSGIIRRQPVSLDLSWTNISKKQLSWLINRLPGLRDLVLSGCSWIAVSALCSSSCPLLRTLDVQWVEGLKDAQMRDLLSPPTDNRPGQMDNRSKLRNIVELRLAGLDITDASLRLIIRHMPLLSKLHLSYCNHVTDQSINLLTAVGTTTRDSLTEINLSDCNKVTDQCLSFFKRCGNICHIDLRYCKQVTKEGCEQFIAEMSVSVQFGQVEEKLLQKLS
Description: as §1, §2

KDM7B = KDM7B (Homo sapiens, UniProt Q9UPP1); test: KDM7B enzymatic assay (AlphaLISA); assay type: biochemical
Description: as §1, §2

DOT1L = biological target: T2, DOT1L (Homo sapiens, UniProt Q8TEK3); test: Histone methyltransferase enzymatic assay, DOT1L; assay type: biochemical; conditions: enzyme conc. 2 nM
T2 construct: 1-416; BRIC
Description: (§3) Histone methyltransferase assays were performed in 96-well half-area optiplates (PerkinElmer) at room temperature. All concentrations are final unless noted otherwise. Compounds were serially diluted in DMSO and the final DMSO concentration was 1%. A 24 μL reaction mixture contained compound, enzyme, 200 nM of nucleosome or histone substrate, 400 nM ^3H-SAM (83.1 Ci/mmol), 50 mM Tris-HCl (pH 8.0), 50 mM NaCl, 5 mM MgCl2, 1 mM DTT, and 0.01% Tween-20. The plate was sealed, mixed on a Titramax plate shaker at 1200 rpm for 30 sec, and incubated at room temperature for 60 min. The reaction was quenched by addition of 24 μL mixture containing 5 mg/mL PVT-PEI beads and 300 μM unlabeled SAM in water. The plate was sealed, mixed as previously noted, incubated overnight, and read on a TopCount plate reader (PerkinElmer).
as §2

NSD2 = biological target: T3, NSD2 (Homo sapiens, UniProt O96028); test: Histone methyltransferase enzymatic assay, NSD2; assay type: biochemical; conditions: enzyme conc. 10 nM
T3 construct: Full Length; purchased RBC (read as Reaction Biology Corporation, named)
Description: as §3, §2

SET7/9 = biological target: T4, SET7/9 (Homo sapiens, UniProt Q8WTS6); test: Histone methyltransferase enzymatic assay, SET7/9; assay type: biochemical; conditions: enzyme conc. 100 nM
T4 construct: 2-366; purchased RBC (read as Reaction Biology Corporation, named)
Description: as §3, §2

Chain of KDM4A (O75164 whole entry): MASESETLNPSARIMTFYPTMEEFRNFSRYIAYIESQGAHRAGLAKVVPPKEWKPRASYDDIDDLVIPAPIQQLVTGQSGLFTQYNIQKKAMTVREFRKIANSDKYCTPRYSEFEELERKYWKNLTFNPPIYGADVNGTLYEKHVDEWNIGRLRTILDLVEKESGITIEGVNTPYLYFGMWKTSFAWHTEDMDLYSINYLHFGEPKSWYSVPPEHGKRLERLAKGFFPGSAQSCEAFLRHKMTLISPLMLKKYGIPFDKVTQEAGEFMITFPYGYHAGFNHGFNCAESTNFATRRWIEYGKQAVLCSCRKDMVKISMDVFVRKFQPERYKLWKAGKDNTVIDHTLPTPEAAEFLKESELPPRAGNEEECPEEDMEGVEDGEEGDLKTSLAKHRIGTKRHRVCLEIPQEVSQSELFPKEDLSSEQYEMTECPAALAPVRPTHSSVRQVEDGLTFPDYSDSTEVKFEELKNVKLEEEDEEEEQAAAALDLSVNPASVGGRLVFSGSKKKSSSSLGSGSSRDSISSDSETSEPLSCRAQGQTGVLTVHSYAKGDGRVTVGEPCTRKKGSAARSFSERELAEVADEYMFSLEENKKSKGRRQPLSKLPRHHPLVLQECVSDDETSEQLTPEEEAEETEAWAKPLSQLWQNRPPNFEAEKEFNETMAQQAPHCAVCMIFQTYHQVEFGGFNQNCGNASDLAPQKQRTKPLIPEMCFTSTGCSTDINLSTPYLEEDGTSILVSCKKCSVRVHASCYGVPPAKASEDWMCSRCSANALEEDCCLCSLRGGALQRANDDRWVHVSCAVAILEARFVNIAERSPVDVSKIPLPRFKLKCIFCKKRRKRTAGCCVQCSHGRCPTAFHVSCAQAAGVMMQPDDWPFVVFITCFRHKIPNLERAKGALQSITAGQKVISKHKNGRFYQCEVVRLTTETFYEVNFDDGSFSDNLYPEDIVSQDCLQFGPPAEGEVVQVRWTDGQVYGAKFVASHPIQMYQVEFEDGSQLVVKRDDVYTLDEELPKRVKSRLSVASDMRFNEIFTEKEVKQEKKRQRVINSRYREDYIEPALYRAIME
Chain of KDM7B (Q9UPP1 whole entry): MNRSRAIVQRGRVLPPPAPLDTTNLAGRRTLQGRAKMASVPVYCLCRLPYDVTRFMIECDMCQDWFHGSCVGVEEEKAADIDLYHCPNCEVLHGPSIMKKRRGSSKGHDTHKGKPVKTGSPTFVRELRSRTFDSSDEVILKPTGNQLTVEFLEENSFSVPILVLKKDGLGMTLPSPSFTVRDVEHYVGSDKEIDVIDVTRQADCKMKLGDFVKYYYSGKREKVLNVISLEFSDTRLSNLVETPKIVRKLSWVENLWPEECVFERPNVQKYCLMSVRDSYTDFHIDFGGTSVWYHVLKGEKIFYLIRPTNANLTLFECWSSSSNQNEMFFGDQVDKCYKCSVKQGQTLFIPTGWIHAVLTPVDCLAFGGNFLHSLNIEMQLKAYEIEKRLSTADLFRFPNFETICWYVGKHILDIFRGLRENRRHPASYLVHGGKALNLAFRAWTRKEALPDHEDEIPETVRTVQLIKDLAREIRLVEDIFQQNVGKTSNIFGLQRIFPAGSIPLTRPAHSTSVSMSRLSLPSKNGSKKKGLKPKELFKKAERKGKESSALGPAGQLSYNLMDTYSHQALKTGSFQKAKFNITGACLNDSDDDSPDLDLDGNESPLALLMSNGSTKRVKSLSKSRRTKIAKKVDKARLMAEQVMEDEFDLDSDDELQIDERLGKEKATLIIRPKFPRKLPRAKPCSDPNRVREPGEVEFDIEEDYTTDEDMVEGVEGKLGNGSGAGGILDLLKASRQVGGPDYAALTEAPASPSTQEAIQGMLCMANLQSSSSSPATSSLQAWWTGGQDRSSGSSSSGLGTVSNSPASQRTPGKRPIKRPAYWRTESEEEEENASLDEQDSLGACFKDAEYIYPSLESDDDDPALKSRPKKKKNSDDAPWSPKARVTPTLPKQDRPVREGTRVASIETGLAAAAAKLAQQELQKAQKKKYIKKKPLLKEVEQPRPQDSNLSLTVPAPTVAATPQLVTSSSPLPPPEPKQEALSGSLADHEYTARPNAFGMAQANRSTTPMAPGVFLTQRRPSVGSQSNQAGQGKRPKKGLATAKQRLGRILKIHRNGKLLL
T2 sequence (Q8TEK3 1-416): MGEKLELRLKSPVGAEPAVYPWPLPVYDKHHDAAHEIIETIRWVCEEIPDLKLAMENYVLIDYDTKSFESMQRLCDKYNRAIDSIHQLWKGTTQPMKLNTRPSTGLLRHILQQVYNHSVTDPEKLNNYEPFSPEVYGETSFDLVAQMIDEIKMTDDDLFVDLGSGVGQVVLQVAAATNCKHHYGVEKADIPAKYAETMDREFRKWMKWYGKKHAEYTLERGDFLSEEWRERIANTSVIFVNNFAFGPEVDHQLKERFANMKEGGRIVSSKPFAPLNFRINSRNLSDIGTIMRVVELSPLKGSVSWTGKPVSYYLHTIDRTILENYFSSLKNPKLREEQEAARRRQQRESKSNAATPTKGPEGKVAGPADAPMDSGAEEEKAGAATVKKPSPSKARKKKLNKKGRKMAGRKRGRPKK
T3 sequence (O96028 whole entry): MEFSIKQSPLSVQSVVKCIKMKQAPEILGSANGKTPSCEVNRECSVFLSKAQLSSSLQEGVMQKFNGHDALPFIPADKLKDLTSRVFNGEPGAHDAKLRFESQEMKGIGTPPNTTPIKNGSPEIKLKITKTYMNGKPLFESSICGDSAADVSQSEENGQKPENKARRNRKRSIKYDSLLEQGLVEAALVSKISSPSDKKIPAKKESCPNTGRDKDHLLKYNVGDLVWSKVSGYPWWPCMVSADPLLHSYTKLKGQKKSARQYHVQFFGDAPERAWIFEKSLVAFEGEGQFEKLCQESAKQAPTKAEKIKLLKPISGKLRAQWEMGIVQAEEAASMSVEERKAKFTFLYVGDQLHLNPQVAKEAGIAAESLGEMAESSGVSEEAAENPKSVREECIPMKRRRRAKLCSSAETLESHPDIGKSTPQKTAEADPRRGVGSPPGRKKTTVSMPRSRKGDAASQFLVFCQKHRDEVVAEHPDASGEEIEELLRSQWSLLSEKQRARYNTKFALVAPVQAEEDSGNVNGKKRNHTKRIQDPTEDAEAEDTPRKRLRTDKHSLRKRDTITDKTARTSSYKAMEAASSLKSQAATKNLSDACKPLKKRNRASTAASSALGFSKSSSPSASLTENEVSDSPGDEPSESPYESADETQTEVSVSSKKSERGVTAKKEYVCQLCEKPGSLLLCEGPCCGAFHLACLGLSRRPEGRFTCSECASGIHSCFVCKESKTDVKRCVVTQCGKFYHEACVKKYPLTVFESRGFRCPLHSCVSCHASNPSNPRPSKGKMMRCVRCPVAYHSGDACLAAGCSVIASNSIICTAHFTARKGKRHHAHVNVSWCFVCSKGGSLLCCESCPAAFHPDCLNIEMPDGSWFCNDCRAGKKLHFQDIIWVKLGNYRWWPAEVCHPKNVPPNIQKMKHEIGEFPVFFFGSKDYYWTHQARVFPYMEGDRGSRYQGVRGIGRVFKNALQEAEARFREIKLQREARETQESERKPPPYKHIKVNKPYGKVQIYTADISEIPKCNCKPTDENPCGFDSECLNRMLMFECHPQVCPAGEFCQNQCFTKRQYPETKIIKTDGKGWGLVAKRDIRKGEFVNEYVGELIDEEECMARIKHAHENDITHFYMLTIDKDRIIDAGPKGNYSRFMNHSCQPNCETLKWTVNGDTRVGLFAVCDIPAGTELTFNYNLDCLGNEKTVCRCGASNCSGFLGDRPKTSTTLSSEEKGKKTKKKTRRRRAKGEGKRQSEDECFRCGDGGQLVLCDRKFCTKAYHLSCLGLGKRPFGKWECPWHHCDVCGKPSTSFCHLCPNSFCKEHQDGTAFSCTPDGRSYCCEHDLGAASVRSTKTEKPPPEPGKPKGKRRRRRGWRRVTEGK
T4 sequence (Q8WTS6 2-366): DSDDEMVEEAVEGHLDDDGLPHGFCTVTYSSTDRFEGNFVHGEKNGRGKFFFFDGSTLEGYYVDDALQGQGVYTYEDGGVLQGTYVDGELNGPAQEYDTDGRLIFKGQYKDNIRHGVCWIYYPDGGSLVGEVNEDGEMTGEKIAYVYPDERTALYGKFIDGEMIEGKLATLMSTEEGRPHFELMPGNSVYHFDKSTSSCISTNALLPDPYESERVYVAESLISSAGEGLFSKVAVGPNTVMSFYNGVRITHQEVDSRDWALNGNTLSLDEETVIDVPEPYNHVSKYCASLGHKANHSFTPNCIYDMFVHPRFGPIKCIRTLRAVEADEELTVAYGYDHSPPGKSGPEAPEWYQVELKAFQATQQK

Row | Fold Selectivity Compared to KDM5A (KDM4A; IC50 of KDM4A over KDM5A) [fold] | IC50 (KDM4A; enzyme concentration 0.2 nM) [µM] | Fold Selectivity Compared to KDM5A (KDM2B; IC50 of KDM2B over KDM5A) | IC50 (KDM2B; enzyme concentration 2 nM) [µM] | Fold Selectivity Compared to KDM5A (KDM7B; IC50 of KDM7B over KDM5A) | IC50 (KDM7B; enzyme concentration 2.5 nM) [µM] | IC50 (DOT1L) [µM] | IC50 (NSD2) [µM] | IC50 (SET7/9) [µM] | SMILES | adverse effects (Tolerability in rats)
1 |  |  |  |  |  |  |  |  |  | CCOC(=O)c1ccnc(CNCC(=O)N(CC)CCN(C)C)c1 [GS-5801] | no adverse effects were observed
2 | 20 | 0.0072 | > 1,720 fold | 0.62 | > 1,110 fold | 0.4 | > 100 | > 100 | > 100 | CCN(CCN(C)C)C(=O)CNCc1cc(C(=O)O)ccn1 [GS-080] | 
